Assay results: PMC7247349, “Reactions of Plasmodium falciparum Ferredoxin:NADP^+ Oxidoreductase with Redox Cycling Xenobiotics: A Mechanistic Study” (International Journal of Molecular Sciences, 2020)

Columns and labels:
[1] = target: T1, Ferredoxin:NADP^+ oxidoreductase (PfFNR) (Plasmodium falciparum, UniProt C6KT68); assay: steady-state product inhibition of juglone reductase reaction; assay type: biochemical
T1 construct: gene FNR; recombinant PfFNR

[2] = target: T1, Ferredoxin:NADP^+ oxidoreductase (PfFNR); assay: steady-state kinetics; competitive inhibition versus AcPyP+ in transhydrogenase reaction; stopped-flow FAD reduction; assay type: biochemical
Excerpt: steady-state kinetics; competitive inhibition versus AcPyP+ in transhydrogenase reaction; stopped-flow FAD reduction on Ferredoxin:NADP^+ oxidoreductase (PfFNR) | NADPH acts as a competitive inhibitor to AcPyP^+, occupying the pyridine nucleotide binding site of the reduced enzyme form

T1 sequence (C6KT68 56-371): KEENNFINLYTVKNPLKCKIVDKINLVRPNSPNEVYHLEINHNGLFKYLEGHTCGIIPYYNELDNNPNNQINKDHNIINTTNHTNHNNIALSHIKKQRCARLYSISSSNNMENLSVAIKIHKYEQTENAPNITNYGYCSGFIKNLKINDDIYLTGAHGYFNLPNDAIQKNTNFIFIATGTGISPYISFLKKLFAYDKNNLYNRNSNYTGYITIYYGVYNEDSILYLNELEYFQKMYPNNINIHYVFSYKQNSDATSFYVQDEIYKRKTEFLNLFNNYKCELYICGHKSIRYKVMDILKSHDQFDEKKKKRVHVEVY

| Structure (SMILES) | Ki [1] [µM] | Ki [2] [µM] |
| --- | --- | --- |
| NC(=O)c1ccc[n+]([C@@H]2O[C@H](COP(=O)([O-])OP(=O)(O)OC[C@H]3O[C@@H](n4cnc5c(N)ncnc54)[C@H](OP(=O)(O)O)[C@@H]3O)[C@@H](O)[C@H]2O)c1 [NADP^+] | 1420 ± 130 |  |
| NC(=O)C1=CN([C@@H]2O[C@H](COP(=O)(O)OP(=O)(O)OC[C@H]3O[C@@H](n4cnc5c(N)ncnc54)[C@H](OP(=O)(O)O)[C@@H]3O)[C@@H](O)[C@H]2O)C=CC1 [NADPH] |  | 140 ± 20 |
